“And” between values parts separate entries of the source, which are not always exact repeats. Equal values may be shown once.
Assays:
AMP KINASE [1] = assay: AMP KINASE phosphorylation, cell-based fluorescent ELISA (BioAssay Systems)
Description: The compounds of the present invention were tested for their activity on AMP KINASE. The activity on AMP KINASE was evaluated by quantitative fluorescent immunoenzymatic assay of AMP KINASE phosphorylation status in cultured cells. The 5-AMP-activated protein kinase (AMP KINASE) is a key sensor of intracellular energy balance. AMP KINASE is activated in response to an increase in the AMP/ATP ratio which can be caused by a number of factors such as muscle contraction, starvation, or hypoxia. AMP KINASE is a heterotrimeric protein complex comprising of α—(63 kDa), β—(38 kDa) and γ—(38 kDa) subunits. For each subunit, isoforms have been identified (α1, α2, β1, β2, γ1, γ2, γ3) which theoretically allow the formation of 12 different proteins. The α-subunit contains a serine/threonine kinase domain and the regulatory subunits contain binding sites for AMP and ATP (γ-subunit) and for glycogen (β-subunit). AMP KINASE is activated by phosphorylation on Thr-172 within the catalytic domain. AMP binding results in a 2 to 5-fold increase in AMP KINASE activity compared to the basal level. Binding of AMP to the γ-subunit causes allosteric activation of the kinase and induces a conformational change in the kinase domain that protects AMP KINASE from dephosphorylation of Thr-172.
BioAssay Systems' cell-based ELISA measure phosphorylated AMP KINASE in whole cells and normalizes the signal to the total protein content. The antibody recognizes both α-subunits and, thus, can be used for cells from all tissues (human, mouse, rat). This simple and efficient assay eliminates the need for cell lysate preparation and can be used to study AMP KINASE regulation in short-term and long-term assays. In this assay, cells grown in 96-well plates are fixed and permeabilized in the wells. AMP KINASE phosphorylation (pAMPK) is measured using a fluorescent ELISA followed by total protein measurement in each well.
A few illustrative compounds of the present invention were tested at 10 nM and the AMPkinase activation of the compounds is listed at Table 2: […]

AMP KINASE [2] = assay: AMP KINASE activation, cell based ELISA in Hepatoma (Hep 2) liver cells; conditions: 30 m, over baseline of 100 (DMSO control)
Description: AMP KINASE activation potential of the compounds was evaluated using cell based ELISA·Hepatoma (Hep 2) liver cells were maintained in a T 75 culture flask-containing 25 mM DMEM+10% fetal calf serum. The cells were maintained in a T 75 culture flask-containing medium (DMEM+10% fetal calf serum). On reaching a confluence of 70 to 80%, the cells were seeded in a 96 well plate at a density of 40,000 cells per well in 25 mM DMEM+10% FCS medium. The plates were then incubated at 37° C. with 5% CO2 for 24 hours. Various concentrations of drugs were prepared in DMSO and diluted to required concentration with the medium and incubated at 37° C. with 5% CO2 for 30 min and 1 h for Epicatechin analogs and 11-BHP analogs respectively. Metformin was used as positive control·Cells were fixed with 4% formaldehyde for 30 minutes at room temperature and washed three times with PBS containing 0.1% Triton X-100. Endogenous peroxidase was quenched with 1% H2O2 in PBS-T (0.1% Tween 20) for 30 minutes and washed three times in PBS-T. Cells were blocked with 1% BSA in PBS-T for 1 hour. The cells were incubated with 1:1000 dilution primary antibody (Phospho-AMPKα ([…]) Rabbit mAb, Cell Signaling in PBS-T containing 5% BSA at 4° C. overnight. The cells were then washed three times with PBS-T for 5 minutes and incubated with 1:1000 dilution secondary antibody (Anti-rabbit IgG, HRP-linked Antibody, Cell Signaling) in PBS-T with 1% BSA for 1 hour at RT·Cells were washed three times with PBS-T for 5 minutes The cells were incubated with 100 μl TMB substrate solution for 30 minutes and the reaction was stopped with 100 μl of 2N H2SO4. Then the plate was read at 450 nm using ELISA plate reader and absorbance recorded. % activity was calculated using DMSO control as 100%.

| Compound | AMPKinase Activation at 10 nM (AMP KINASE [1]) | further results |
| --- | --- | --- |
| C[C@]12CCC(=O)NC1=CCC1C2[C@@H](O)C[C@]2(C)C(=O)CCC12 (stereo partly drawn) [Compound 1005, (4aR,5S,6aS)5-hydroxy-4a,6a-dimethyl-4,4a,4b,5,6,6a,9,9a,9b,- 10-decahydro-1H-indeno[5,4-f]-quinoline-2,7(3H,8H)-dione] | 1.85 | – |
| CC(=O)C1CCC2C3CC=C4NC(=O)CC[C@]4(C)C3[C@@](C)(O)C[C@]12C (stereo partly drawn) [Compound 1008, (4aR,5S,6aS)-7-acetyl-4,4a,4b,5,- 6,6a,7,8,9,9a,9b,10-dodecahydro-5-hydroxy-4a,5,6a-trimethyl-1H-indeno[5,4-f]quinolin-2(3H)-one] | 1.97 | – |
| C[C@]12C=CC(=O)C=C1CCC1C2[C@@H](O)C[C@@]2(C)C1CC[C@@H]2C(=O)O (stereo partly drawn) [Compound 1013, (10R,11S,13S,17S)-11-hydroxy-10,13-dimethyl-3-oxo-6,7,8,9,- 10,11,12,13,14,15,16,17-dodeca-hydro-3H-cyclopenta[a]-phenan-threne-17-carboxylic acid] | 1.79 | – |
| CN(C)C(=O)[C@H]1CCC2C3CCC4=CC(=O)C=C[C@]4(C)C3[C@@H](O)C[C@@]21C (stereo partly drawn) [Compound 1014, (10R,11S,13S,17S)-11-hydroxy-N,N,10,13-tetramethyl-3-oxo-6,7,8,9,10,11,12,13,14,15,16,17-dodecahydro-3H-cyclopenta[a]-phenanthrene-17-carboxamide] | 1.80 | – |
| CC(=O)[C@H]1CCC2C3CCC4=CC(=O)C=C[C@]4(C)C3[C@@H](O)C[C@@]21C (stereo partly drawn) [Compound 1015, (10R,11S,13S,17S)-17-acetyl-11-hydroxy-10,13-dimethyl-6,7,8,9,- 10,11,12,13,14,13,16,17-dodeca-hydro-3H-cyclopenta[a]-phenan-thren-3-one] | 2.23 | – |
| CC(O)[C@H]1CCC2C3CCC4=CC(=O)C=C[C@]4(C)C3[C@@H](O)C[C@@]21C (stereo partly drawn) [Compound 1016, (10R,11S,13S,17S)-11-hydroxy-17-((R)-1-hydroxyethyl)-10,13-dimethyl-6,7,8,9,10,11,12,13,- 14,15,16,17-dodecahydro-3H-cyclopenta[a]phenanthren-3-one] | 2.38 | – |
| C[C@]12CCC(=O)NC1=CCC1C2[C@@H](O)C[C@@]2(C)C1CCC21OCCO1 (stereo partly drawn) [Compound 1017, (4a′R,5′S,6a′S)-5′-hydroxy-4a′,6a′-dimethyl-3′,4′,4a′,4b′,5′,6′,6a′,8′,- 9′,9a′,9b′,10′-dodecahydrospiro-[[1,3]dioxolane-2,7′-indeno[5,4-f]-quinolin]-2′(1′H)-one] | 2.08 | – |
| C[C@]12CCC(=O)NC1=CCC1C2[C@](C)(O)C[C@]2(C)C(=O)CCC12 (stereo partly drawn) [Compound 1018, (4aR,5R,6aS)-5-hydroxy-4a,5,6a-trimethyl-4,4a,4b,5,6,6a,9,9a,9b,- 10-decahydro-1H-indeno[5,4-f]-quinoline-2,7(3H,8H)-dione] | 2.19 | – |
| C[C@]12C[C@H](O)C3C(CC=C4NC(=O)CC[C@@]43C)C1CCC2O (stereo partly drawn) [Compound 1019, (4aR,5S,6aS)-5,7-dihydroxy-4a,6a-dimethyl-4,4a,4b,5,6,6a,- 7,8,9,9a,9b,10-dodecahydro-1H-indeno[5,4-f]quinolin-2(3H)-one] | 2.23 | – |
| C[C@]12CCC(=O)NC1=CCC1C2[C@@H](O)C[C@]2(C)/C(=N\O)CCC12 (stereo partly drawn) [Compound 1021, (4aR,5S,6aS,Z)-5-hydroxy-7-(hydroxyimino)-4a,6a-dimethyl-4,4a,4b,5,6,6a,7,8,9,9a,9b,10-dodecahydro-1H-indeno[5,4-f]-quinolin-2(3H)-one] | 2.23 | – |
| CN1C(=O)CC[C@@]2(C)C1=CCC1C3CCC(O)[C@@]3(C)C[C@H](O)C12 (stereo partly drawn) [Compound 1022, (4aR,5S,6aS)-5,7-dihydroxy-1,4a,6a-trimethyl-4,4a,4b,5,6,6a,- 7,8,9,9a,9b,10-dodecahydro-1H-indeno[5,4-f]quinolin-2(3H)-one] | 2.87 | – |
| C[C@]12CCC(=O)NC1CCC1C3CCC(O)[C@@]3(C)C[C@H](O)C12 (stereo partly drawn) [Compound 1023, (4aR,5S,6aS)-5,7-dihydroxy-4a,6a-dimethyltetradecahydro-1H-indeno[5,4-f]quinolin-2(3H)-one] | 2.46 | – |
| CC1([C@H]2CCC3C4CC=C5NC(=O)CC[C@]5(C)C4[C@@H](O)C[C@@]32C)OCCO1 (stereo partly drawn) [Compound 1025, (4aR,5S,6aS,7S)-5-hydroxy-4a,6a-dimethyl-7-(2-methyl-1,3-dioxolan-2-yl)-4,4a,4b,5,6,6a,- 7,8,9,9a,9b,10-dodecahydro-1H-indeno[5,4-f]quinolin-2(3H)-one] | 2.11 | – |
| CC1([C@H]2CCC3C4CC=C5NC(=O)CC[C@]5(C)C4[C@@](C)(O)C[C@@]32C)OCCO1 (stereo partly drawn) [Compound 1026, (4aR,5S,6aS,7S)-5-hydxoxy-4a,5,6a-trimethyl-7-(2-methyl-1,3-dioxolan-2-yl)-4,4a,4b,5,6,6a,- 7,8,9,9a,9b,10-dodecahydro-1H-indeno[5,4-f]quinolin-2(3H)-one] | 1.69 and 2.17 | – |
| C[C@]12CCC(=O)NC1=CCC1C2[C@@H](O)C[C@@]2(C)C1CC[C@@H]2C(=O)O (stereo partly drawn) [Compound 1027, (4aR,5S,6aS,7S)-5-hydroxy-4a,6a-dimethyl-2-oxo-2,3,4,4a,4b,5,6,- 6a,7,8,9,9a,9b,10-tetradecahydro-1H-indeno[5,4-f]quinoline-7-carboxylic acid] | 1.85 | – |
| COc1ccc2c(c1)CCC1C2[C@@H](O)C[C@]2(C)C(C(C)O)CCC12 (stereo partly drawn) [Compound 1030, (11S,13S)-17-(1-hydroxyethyl)-3-methoxy-13-methyl-7,8,9,11,12,- 13,14,15,16,17-decahydro-6H-cyclopenta[a]phenanthren-11-ol] | 1.51 | – |
| Cc1ccc(O)c2c1C1C(CC2)C2CC[C@H](C(=O)O)[C@@]2(C)C[C@@H]1O (stereo partly drawn) [Compound 1035, (11S,13S,17S)-4,11-dihydroxy-1,13-diinethyl-7,8,9,11,12,13,- 14,15,16,17-decahydro-6H-cyclopenta[a]phenanthrene-17-carboxylic acid] | 1.76 | – |
| CC(C)(O)[C@H]1CCC2C3CC=C4NC(=O)CC[C@]4(C)C3[C@@H](O)C[C@@]21C (stereo partly drawn) [Compound 1038, (4aR,5S,6aS,7S)-5-hydroxy-7-(2-hydroxypropan-2-yl)-4a,6a-dimethyl-4,4a,4b,5,6,6a,7,8,9,- 9a,9b,10-dodecahydro-1H-indeno-[5,4-f]quinolin-2(3H)-one] | 1.70 | – |
| CC(=O)C1CC[C@H]2[C@@H]3CCC4=CC(=O)CC[C@]4(C)[C@H]3[C@@H](O)C[C@]12C (stereo partly drawn) [Compound 1040, (8S,9S,10R,11S,13S,14S)-17-acetyl-11-hydroxy-10,13-dimethyl-6,7,8,9,10,11,12,13,- 14,15,16,17-dodecahydro-1H-cyclopenta[a]phenanthren-3(2H)-one] | – | % pAMPK (AMP KINASE [2]; 0.1 nM): 118% |
| CN(C)C(=N)N=C(N)N [Metformin, reference compound] | – | % pAMPK (AMP KINASE [2]; 2 mM): 121% |

From US11542298B2, “Hydroxysteroid compounds, their intermediates, process of preparation, composition and uses thereof” (Epirium Bio Inc., priority 2014, dated 2023)
